Reference: patent publication US20040213826A1, “Medical devices and methods for inhibiting proliferation of smooth muscle cells” (priority 2003, published 2004)
Where two headings read alike, the source gives them in different places.

How the values were obtained:
[1] = test system: vascular-endothelial-growth-factor-stimulated human umbilical endothelial cells; conditions: cited from earlier work
[2] = test system: embryoid bodies; conditions: cited from earlier work
[3] = test system: IL-2 expression in Jurkat cells; conditions: read-out: IC50, inhibition of IL-2 expression; cited from earlier work
[4] = test system: porcine coronary arteries; conditions: 1 mM; cited from earlier work
[5] = test system: primary cultured SMCs from rat thoracic aorta; conditions: 1 μg/ml; cited from earlier work
[6] = test system: rat aortic smooth muscle cells (RASM cells); test: RASM cell proliferation assay (Promega CellTiter 96 AQueous One Solution); assay type: cell-based; conditions: for inhibition of RASM cell proliferation (in words) / IC50, inhibition of SMC proliferation: RASM cells, 48 h exposure; for IC50, inhibition of SMC proliferation: light absorption
Description: (§1) Low-passage rat aortic smooth muscle cells (RASM cells) from primary isolates and human aortic smooth muscle cells (HASM cells) were obtained and grown according to the suppliers' instructions. RASM cells were cultured in a medium comprising DMEM+10% FBS+100 U/ml penicillin and […], which was changed every 48 h. Micro-cultures of 5000 cells of each of the RASM and HASM were established in quadruplicate, placedin flat-bottom 96-well micro-titer plates, and exposed to various concentrations of the trichostatin-A, oxamflatin, and rapamycin. Trichostatin-A and oxamflatin were dissolved in dimethyl sulfoxide (DMSO) at various concentrations, and stored at −20° C. prior to use; rapamycin was dissolved in methanol (100 nM). After 48 h following initial exposure, the cultures were pulsed with […] of a cell-proliferation assay solution (Promega CellTiter 96 AQueous One Solution, Catalog G3580), and incubated for 1 h. The cultures' light absorbance was then measured on a BioRad Benchmark micro-plate reader, which was set to the range Ab 490 nm-Ab 655 nm. Light absorbed by the blank was accounted for in the tests. All experiments were repeated at least twice. Cell viability was determined using trypan blue staining, after incubating RASM cells with 100 ng/ml of rapamycin and trichostatin-A for 48 h.
Referring to FIG. 1, micro-cultures consisting of RASM cells were plated into a 96-well dish, and exposed as follows: a number of the micro-cultures were sham exposed, a number were exposed to rapamycin (5, 10, and 50 ng/ml, respectively), and a number were exposed to trichostatin-A ([…], respectively). The RASM cells were exposed for 48 h, prior to assessing cell proliferation.
Referring to FIG. 2, micro-cultures of RASM cells were plated into a 96-well dish, and exposed as follows: a number of the micro-cultures were sham exposed, and a number were exposed to oxamflatin (5, 10, 50, 100, 200 and 500 ng/ml, respectively)., The RASM cells were exposed for 48 h before assessing cell proliferation.

[7] = test system: RASM cells; test: Cell viability by trypan blue staining; assay type: cell-based, rat; conditions: 100 ng/ml, 48 h
Description: as §1

[8] = cited from earlier work

| Compound | invasion of type I collagen gel and formation of capillary like structures ([1]; concentration not given) | angiogenesis in embryoid bodies ([2]; 400 nM) | IC50 [3] [nM] | NO-dependent relaxation of porcine coronary arteries [4] | PDGF-induced competence of primary cultured SMCs [5] | inhibition of RASM cell proliferation (in words) [6] | IC50, inhibition of SMC proliferation [6] [µg/mL] | inhibition of RASM cell proliferation compared with rapamycin ([6]; equal concentrations of 50 ng/ml, 48 h) | invasion of type I collagen gel and formation of capillary like structures ([1]; 400 nM) | angiogenesis in embryoid bodies ([2]; 10 nM) | cell viability, trypan blue exclusion, versus control cells [7] | solubility [8] |
| --- | --- | --- | --- | --- | --- | --- | --- | --- | --- | --- | --- | --- |
| O=C(CCCCCCC(=O)Nc1ccccc1)NO [SAHA, suberoylanilide hydroxamic acid] | prevent | inhibit angiogenesis | – | – | – | – | – | – | – | – | – | – |
| CC(/C=C/C(=O)NO)=C\[C@@H](C)C(=O)c1ccc(N(C)C)cc1 [trichostatin-A] | – | – | 73 | attenuated | inhibited | significant inhibition of SMC proliferation | ~0.02 | greater than that exhibited by rapamycin | prevent | inhibit angiogenesis | no significant difference | soluble in DMSO and ethanol |
| oxamflatin | – | – | – | – | – | inhibited RASM cell proliferation | ~0.075 | – | – | – | – | – |
